Laboratory results taken from patent EP2790511B1 (Merck Sharp & Dohme Corp., priority 2011, dated 2013).
Where two headings read alike, the source gives them in different places.

Legend:
hROMK (hKir1.1) = target: T1, hROMK (hKir1.1) (Homo sapiens, UniProt P48048); assay: Thallium Flux Assay; format: cell-based
T1 construct: expressed in transfected cells
T1 sequence (P48048 1-391): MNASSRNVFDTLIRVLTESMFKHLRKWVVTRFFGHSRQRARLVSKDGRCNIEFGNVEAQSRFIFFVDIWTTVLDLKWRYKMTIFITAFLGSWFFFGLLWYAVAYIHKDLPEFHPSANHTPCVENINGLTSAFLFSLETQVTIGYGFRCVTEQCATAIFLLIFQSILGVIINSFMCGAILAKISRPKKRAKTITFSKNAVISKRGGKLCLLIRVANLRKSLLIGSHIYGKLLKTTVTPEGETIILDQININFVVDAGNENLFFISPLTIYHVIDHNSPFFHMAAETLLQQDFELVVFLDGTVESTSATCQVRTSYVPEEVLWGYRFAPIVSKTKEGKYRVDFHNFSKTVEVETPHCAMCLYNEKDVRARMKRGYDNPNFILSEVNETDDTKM
Outline: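 HEK293 cells stably expressing hROMK, loaded with FluxOR dye 90 min at ambient temperature, then compound 30 min with 0.3 mM ouabain in probenecid buffer pH 7.4.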

Kir1.1 (ROMK1) = target: T2, Kir1.1 (ROMK1) (Homo sapiens, UniProt P48048); assay: Electrophysiology Assay (whole cell voltage clamp, IonWorks Quattro)
T2 sequence (P48048 1-391): T1 sequence (P48048 1-391)
Procedure: Chinese hamster ovary cells stably expressing Kir1.1 channels were maintained in T-75 flasks in cell culture media in a humidified 10% CO2 incubator at 37 °C. Prior to an experiment, Kir1.1 expression was induced by overnight incubation with 1 mM sodium butyrate. […] After centrifugation, the cell pellet was resuspended in approximately 4.0 mL of bath solution and placed in the IonWorks instrument. The intracellular solution consisted of (in mM): 80 K gluconate, 40 KCl, 20 KF, 3.2 MgCl2, 3 EGTA, 5 Hepes, pH 7.4. Electrical access to the cytoplasm was achieved by perforation in 0.13 mg/mL amphotericin B for 4 min. […] Voltage protocols and current recordings were performed using the IonWorks HT software/hardware system. Currents were sampled at 1 kHz. No correction for liquid junction potentials was used. The test pulse, consisting of a 100 ms step to 0 mV from a holding potential of -70 mV, followed by a 100 ms voltage ramp from -70 mV to +70 mV, was applied before and after a 6 min compound incubation period. Test compounds were prepared by diluting DMSO stock solutions into the bath solution at 3x the final concentration and placed in the instrument in 96-well polypropylene plates. Current amplitudes were measured using the IonWorks software.

[1] = HEK293 cells stably expressing hROMK (hKir1.1), FLIPR-Tetra, read-out: Thallium Flux IC50

Row | Compound | IC50 (hROMK (hKir1.1); [1]) [nM] | IC50 (Kir1.1 (ROMK1)) [nM] | IC50 (hROMK (hKir1.1); Thallium Flux IC50) [nM]
1 | Cc1c([C@@H]2CN3CCN(C(=O)Cc4ccc(-n5cnnn5)cn4)C[C@H]3CO2)ccc(F)c1C#N [Example 2, 3-((3R,9aS)-8-(2-(5-(1H-tetrazol-1-yl)pyridin-2-yl)acetyl)octahydropyrazino[2,1-c][1,4]oxazin-3-yl)-6-fluoro-2-methylbenzonitrile] | 120 | 70 | 
2 | Cc1c([C@H]2CN3CCN(C(=O)Cc4ccc(-n5cnnn5)cn4)C[C@H]3CO2)ccc(F)c1C#N [Example 3, 3-((3S,9aS)-8-(2-(5-(1H-tetrazol-1-yl)pyridin-2-yl)acetyl)octahydropyrazino[2,1-c][1,4]oxazin-3-yl)-6-fluoro-2-methylbenzonitrile] | 90 | 100 | 
3 | Cc1c([C@H]2CN3CCN(C(=O)Cc4ccc(-n5cnnn5)nc4)C[C@H]3CO2)ccc(F)c1C#N [Example 4, 6-fluoro-2-methyl-3-[(3S,9aS)-8-{[6-(1H-tetrazol-1-yl)pyridin-3-yl]acetyl}octahydropyrazino[2,1-c][1,4]oxazin-3-yl]benzonitrile] |  | 40 | 70
4 | Cc1c([C@H]2CN3CCN(C(=O)Cc4cnc(-n5cnnn5)nc4)C[C@H]3CO2)ccc(F)c1C#N [Example 6, 6-fluoro-2-methyl-3[(3S,9aS)-8-{[2-(1H-tetrazol-1-yl)pyrimidin-5-yl]acetyl}octahydropyrazino[2,1-c][1,4]oxazin-3-yl]benzonitrile] |  | 40 | 100
5 | Cc1c([C@H]2CN3CCN(C(=O)Cc4ccc(-n5cnnn5)nc4)C[C@@H]3CO2)ccc(F)c1C#N [Example 7, 6-fluoro-2-methyl-3-[(3S,9aR)-8-{[6-(1H-tetrazol-1-yl)pvridin-3-yl]acetyl}octahydropyrazino[2,1-c][1,4]oxazin-3-yl]benzonitrile] |  | 70 | 
6 | Cc1c([C@@H]2CN3CCN(C(=O)Cc4ccc(-n5cnnn5)nc4)C[C@@H]3CO2)ccc(F)c1C#N [Example 8, 6-fluoro-2-methyl-3-[(3R,9aR)-8-{[6-(1H-tetrazol-1-yl)pyridin-3-yl]acetyl}octahydropyrazino[2,1-c][1,4]oxazin-3-yl]benzonitrile] |  | 40 | 
7 | Cc1c([C@@H]2CN3CCN(C(=O)Cc4cnc(-n5cnnn5)nc4)C[C@@H]3CO2)ccc(F)c1C#N [Example 13, 6-fluoro-2-methyl-3-[(3R,9aR)-8-{[2-(1H-tetrazol-1-yl)pyrimidin-5-yl]acetyl}octahydropyrazino[2,1-c][1,4]oxazin-3-yl]benzonitrile] |  | 30 | 110
8 | N#Cc1cc([C@@H]2CN3CCN(C(=O)Cc4ccc(-n5cnnn5)nc4)C[C@H]3CO2)ccc1F [Example 37, 2-fluoro-5-[(3R,9aS)-8-{[6-(1H-tetrazol-1-yl)pyridin-3-yl]acetyl}octahydropyrazino[2,1-c][1,4]oxazin-3-yl]benzonitrile] |  | 20 | 
9 | N#Cc1cc([C@@H]2CN3CCN(C(=O)Cc4ccc(-n5cnnn5)cn4)C[C@H]3CO2)ccc1F [Example 38, 2-fluoro-5-[(3R,9aS)-8-{[5-(1H-tetrazol-1-yl)pyridin-2-yl]acetyl}octahydropyrazino[2,1-c][1,4]oxazin-3-yl]benzonitrile] |  | 120 | 
10 | COc1ccc([C@@H]2CN3CCN(C(=O)Cc4ccc(-n5cnnn5)nc4)C[C@H]3CO2)c(C)c1C#N [Example 50] | 80 | 130 | 
11 | COc1cc(F)c([C@@H]2CN3CCN(C(=O)Cc4ccc(-n5cnnn5)nc4)C[C@H]3CO2)cc1C#N [Example 57, 4-fluoro-2-methoxy-5-[(3R,9aS)-8-{[6-(1H-tetrazol-1-vl)pvridin-3-yl]acetyl}octahydropyrazino[2,1-c][1,4]oxazin-3-yl]benzonitrile] | 210 | 190 | 
12 | COc1c([C@H]2CN3CCN(C(=O)Cc4ccc(-n5cnnn5)nc4)C[C@H]3CO2)ccc(F)c1C#N [Example 61, 6-fluoro-2-methoxy-3-[(3S,9aS)-8-{[6-(1H-tetrazol-1-vl)pvridin-3-yl]acetyl}octahydropyrazino[2,1-c][1,4]oxazin-3-yl]benzonitrile] | 130 | 70 | 
13 | Cc1nc(-n2cnnn2)ncc1CC(=O)N1CCN2C[C@H](c3ccc(F)c(C#N)c3C)OC[C@@H]2C1 [Example 121, 6-fluoro-2-methyl-3-[(3S,9aS)-8-{[4-methyl-2-(1H-tetrazol-1-yl)pyrimidin-5-yl]acetyl}octahydropyrazino[2,1-c][1,4]oxazin-3-yl]benzonitrile] |  | 90 | 120
14 | Cc1c([C@@H]2CN3CCN(C(=O)Cc4cnc(-n5cnnn5)nc4)C[C@H]3CN2)ccc(F)c1C#N [Example 193, 6-fluoro-2-methyl-3-[(3R,9aR)-8-{[2-(1H-tetrazol-1-yl)pyrimidin-5-yl]acetyl}octahydro-2H-pyrazino[1,2-a]pyrazin-3-yl]benzonitrile] |  |  | 100
15 | Cc1c([C@@H]2CN3CCN(C(=O)Cc4ccc(-n5cnnn5)nc4)C[C@H]3CN2)ccc(F)c1C#N [Example 194, 6-fluoro-2-methyl-3-[(3R,9aR)-8-{[6-(1H-tetrazol-1-yl)pyridin-3-yl]acetyl}octahydro-2H-pyrazino[1,2-a]pyrazin-3-yl]benzonitrile] | 60 | 60 | 
16 | Cc1c([C@@H]2CN3CCN(C(=O)Cc4ccc(-n5cnnn5)cn4)C[C@H]3CN2)ccc(F)c1C#N [Example 195, 6-fluoro-2-methyl-3-[(3R,9aR)-8-{[5-(1H-tetrazol-1-yl)pyridin-2-yl]acetyl}octahydro-2H-pyrazino[1,2-a]pyrazin-3-yl]benzonitrile] | 250 |  | 
17 | C[C@@H]1Cc2cc([C@@H]3CN4CCN(C(=O)Cc5ccc(-n6cnnn6)nc5)C[C@H]4CN3)ccc2C(=O)O1 [Example 196, (3R)-3-methyl-6-[(3R,9aR)-8-{[6-(1H-tetrazol-1-yl)pyridin-3-yl]acetyl}octahydro-2H-pyrazino[1,2-a]pyrazin-3-yl]-3,4-dihydro-1H-isochromen-1-one] | 230 |  | 
18 | N#Cc1cc([C@@H]2CN3CCN(C(=O)Cc4cnc(-n5cnnn5)nc4)C[C@H]3CN2)ccc1F [Example 197, 2-fluoro-5-[(3R,9aR)-8-{[2-(1H-tetrazol-1-yl)pyrimidin-5-yl]acetyl}octahydro-2H-pyrazino[1,2-a]pyrazin-3-yl]benzonitrile] | 240 |  | 
19 | Cc1c([C@@H]2CN3CCN(C(=O)Nc4ccc(-n5cnnn5)nc4)C[C@H]3CO2)ccc(F)c1C#N [Example 198, (3R,9aS)-3-(3-cyano-4-fluoro-2-methylphenyl)-N-[6-(1H-tetrazol-1-yl)pyridin-3-yl]hexahydropyrazino[2,1-c][1,4]oxazine-8(1H)-carboxamide] | 160 |  | 
20 | Cc1c([C@@H]2CN3CCN(C(=O)Nc4ccc(-n5cnnn5)nc4)C[C@@H]3CO2)ccc(F)c1C#N [Example 199, (3R,9aR)-3-(3-cyano-4-fluoro-2-methylphenyl)-N-[6-(1H-tetrazol-1-yl)pyridin-3-yl]hexahydropyrazino[2,1-c][1,4]oxazine-8(1H)-carboxamide] | 140 |  | 
21 | Cc1c([C@@H]2CN3CCN(C(=O)Nc4ccc(-n5cnnn5)cn4)C[C@@H]3CO2)ccc(F)c1C#N [Example 200, (3R,9aR)-3-(3-cyano-4-fluoro-2-methylphenyl)-N-[5-(1H-tetrazol-1-yl)pyridin-2-yl]hexahydropyrazino[2,1-c][1,4]oxazine-8(1H)-carboxamide] | 250 |  | 
22 | Cc1c([C@@H]2CN3CCN(C(=O)Nc4ccc(-n5cnnn5)cn4)C[C@H]3CO2)ccc(F)c1C#N [Example 201, (3R,9aS)-3-(3-cyano-4-fluoro-2-methylphenyl)-N-[5-(1H-tetrazol-1-yl)pyridin-2-yl]hexahydropyrazino[2,1-c][1,4]oxazine-8(1H)-carboxamide] | 320 |  | 
